Legend:
pSTAT3 in HT29 cells = assay: pSTAT3 inhibition in response to IL-22 stimulation in serum starved HT29 cells; assay type: cell-based
Procedure: HT29 cells were serum starved overnight before the four test compounds were diluted to generate a 9-point semi-log dose dilution with a top concentration of 10 μM, plus vehicle control. HT29 cells were incubated with the test compounds for 20 min at 37° C. HT29 cells were incubated for a further 15 min with 10 ng/ml human IL-22 before cells were fixed with 4% PFA for 10 min, and 90% methanol for 30 min before being labelled with a phospho-STAT3Y705 antibody (CST #9145). Cells were rinsed three times using 0.5% BSA/PBS solution before being incubated with Alexa-488 anti-rabbit secondary antibodies.
Mean fluorescence intensity of phospho-STAT3 in single cells was analysed by flow cytometry using an Intellicyt iQue instrument and FlowJo software. The IC50 was determined using a four-parameter analysis following removal of background signal and normalisation to the DMSO control.

JAK3 = JAK3 (Homo sapiens, UniProt P52333); assay: JAK3 kinase inhibition assay (33P-ATP filter binding, Reaction Biology)
TYK2 = TYK2 (Homo sapiens, UniProt P29597); assay: TYK2 kinase inhibition assay (33P-ATP filter binding, Reaction Biology)
JAK1 = JAK1 (Homo sapiens, UniProt P23458); assay: JAK1 kinase inhibition assay (33P-ATP filter binding, Reaction Biology)
Chain of JAK1 (P23458 866-1154): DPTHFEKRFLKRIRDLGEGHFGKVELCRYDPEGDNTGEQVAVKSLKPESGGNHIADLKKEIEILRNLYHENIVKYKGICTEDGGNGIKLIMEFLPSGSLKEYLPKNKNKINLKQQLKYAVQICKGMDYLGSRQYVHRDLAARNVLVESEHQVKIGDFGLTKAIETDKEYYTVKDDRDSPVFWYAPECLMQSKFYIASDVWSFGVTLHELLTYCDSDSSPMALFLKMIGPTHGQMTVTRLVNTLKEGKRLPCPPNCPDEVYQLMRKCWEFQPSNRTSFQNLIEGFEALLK

Chain of TYK2 (P29597 833-1187): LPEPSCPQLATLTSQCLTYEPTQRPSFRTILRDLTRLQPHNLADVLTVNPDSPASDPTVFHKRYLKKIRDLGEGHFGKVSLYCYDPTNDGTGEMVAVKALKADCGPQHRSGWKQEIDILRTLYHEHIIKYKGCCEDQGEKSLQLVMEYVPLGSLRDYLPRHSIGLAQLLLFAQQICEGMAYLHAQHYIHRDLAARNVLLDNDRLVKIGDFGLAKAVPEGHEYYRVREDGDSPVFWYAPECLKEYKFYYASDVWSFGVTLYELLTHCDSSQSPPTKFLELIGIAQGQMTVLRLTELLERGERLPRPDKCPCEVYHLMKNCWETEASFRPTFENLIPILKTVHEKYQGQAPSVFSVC
Chain of JAK3 (P52333 781-1124): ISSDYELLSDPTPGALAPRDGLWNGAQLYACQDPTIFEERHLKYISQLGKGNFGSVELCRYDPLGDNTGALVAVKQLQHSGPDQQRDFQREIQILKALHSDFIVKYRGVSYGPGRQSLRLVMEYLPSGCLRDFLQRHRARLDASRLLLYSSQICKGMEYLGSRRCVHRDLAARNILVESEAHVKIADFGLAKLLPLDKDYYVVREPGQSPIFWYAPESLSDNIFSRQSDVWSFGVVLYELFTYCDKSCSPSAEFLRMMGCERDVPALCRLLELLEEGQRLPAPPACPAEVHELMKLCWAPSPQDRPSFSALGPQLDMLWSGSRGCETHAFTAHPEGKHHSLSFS

Structure (SMILES): NC(=O)c1nc(-c2c(F)cccc2Cl)oc1Nc1ccc(C(=O)N2CCOCC2)cc1 [A, 2-(2-chloro-6-fluoro-phenyl)-5-[4-(morpholine-4-carbonyl)-phenylamino]-oxazole-4-carboxylic acid amide, reference compound]
- inhibition at 10 µM (pSTAT3 in HT29 cells; HT-29, HT29 cells, 10 ng/ml human IL-22, 10 μM compound): 96.9%
- IC50 (pSTAT3 in HT29 cells; Homo sapiens, HT-29, HT29 cells, 10 ng/ml human IL-22): 170 nM
- IC50 (JAK3): 290 nM
- IC50 (TYK2): 10 nM
- IC50 (JAK1): 49 nM

Source: patent US12187716B2, “TYK2 kinase inhibitors” (SAREUM LIMITED, priority 2018, dated 2025)
